The results in this text go back to patent publication US4029671A, “3-[(5-nitro-2-imidazolyl)pyrazol-5-yl]oxamic acid derivatives” (priority 1976, dated 1977).

Holding throughout (experiment): Agar dilution susceptibility of anaerobic bacteria (Chart 1)
What all share (type): cell-based

The subject of experiment [1] is Peptostreptococcus intermedius 1264. Conditions: agar dilution, 37° C., Peptostreptococcus intermedius 1264; for MIC: Peptostreptococcus, 1264, 24 h, read-out: 24 Hr. MIC. (In agar dilution, organisms are placed on agar that contains the substance at set levels.)
In experiment [2] the test system is Bacteroides melaninogenicus 2736. As to conditions: agar dilution, 37° C., Bacteroides melaninogenicus 2736; for MIC: 2736, 24 h, read-out: 24 Hr. MIC.
Experiment [3] has as its system Bacteroides melaninogenicus 1856/28. As to conditions: agar dilution, 37° C., Bacteroides melaninogenicus 1856/28; for MIC: Prevotella intermedia, 1856/28, 24 h, read-out: 24 Hr. MIC.
The test system of experiment [4] is Bacteroides corrodens 1874. As to conditions: agar dilution, 37° C., Bacteroides corrodens 1874; for MIC: Eikenella corrodens, 1874, 24 h, read-out: 24 Hr. MIC.
The subject of experiment [5] is Clostridium septicum 1128. Conditions: 37° C.; for MIC: Clostridium septicum, 1128, 24 h. The procedure: The susceptibility of anaerobic bacteria, both gram positive and gram negative, to a representative number of the novel compounds of this application was determined using the agar dilution method. The bacteria used were isolated from patients hospitalized at the Indiana Univerisity Medical Center. The isolates were identified in the anaerobe laboratory of the Medical Center by the criteria established by Dowell et al., Laboratory Methods in Anaerobic Bacteriology. Public Health Serv. Publ. NO. 1803 (1968) [Center for Disease Control, Atlanta, Ga.]; and by Smith et al., The Pathogenic Anaerobic Bacteria, pages 96- 136 (1968) [Charles C. Thomas, Publisher, Springfield, Ill.]. All the organisms were maintained in chopped meat glucose medium (Scott Labs) at room temperature.
The method used for the agar dilution tests was based on the studies of Sutter et al., Antimicrob. Ag. Chemother. 3, 188-193 (1973). The strains of anaerobic bacteria were grown in 16×× 120 mm. tubes for 16 to 18 hours in Thioglycolate medium without indicator-- 135C (Becton, Dickinson and Co.), to which was added 5 mcg. of hemin per milliliter prior to autoclaving, plus 1 mg. of sodium bicarbonate and 0.1 mcg. of filter-sterilized menadione per milliliter after autoclaving. The strains were adjusted to the turbidity of the No. 1 McFarland standard in Thioglycolate medium without indicator-- 135C containing an additional 0.13 percent Bacto-agar (Difco). Each strain was then applied to the surface of the petri plate (100 mm× 15 mm.) by means of a replicator.
For the agar dilution studies, two-fold dilutions of the test compounds were prepared in deionized water to which was then added laked sheep blood and filter-sterilized menadione so the concentrations after the agar dilution were 5 percent and 10 mcg./ml. respectively. An equal volume of double strength Brucella agar (Becton, Dickinson and Co.) was mixed with each dilution in a water bath held at 50° C. and then poured onto the petri dishes.
All of the procedures were done inside a plastic glove box, except for the incubation of the growth tubes and the pouring of the plates. After the plates hardened, they were put inside the glove box for a minimum of 2 hours before they were inoculated. Generally, the glove box procedures of Aranki et al., Applied Microbiology 17, 568-576 (1969), were followed, but the following modifications were used. Dry materials were introduced into the glove box by evacuating the lock to 28 inches of mercury and filling once with nitrogen gas, followed by evacuating in the same manner and filling with an 80 percent nitrogen plus 10 percent CO2 plus 10 percent hydrogen gas mixture. Liquid media and agar plates were introduced into the glove box by evacuating the lock to 10 inches of mercury and filling with gas four times. The nitrogen gas was used to fill the lock for the first two cycles of evacuation, with the gas mixture described above used for the final two fillings.
All the plates were incubated at 37° C. in Gas Pak jars (Becton, Dickinson and Co.) containing palladium-coated alumina catalysts (reactivated after each use). The results of the agar dilution tests were read after about 24 hours of incubation. The minimum inhibitory concentration (MIC) was recorded as the lowest concentration of test compound at which there was no growth.
The test compounds are identified by the number of the example describing their preparation. The antibiotics clindamycin (C), and erythromycin (E) were also run simultaneously with the novel compounds of this application,for comparison purposes, and the results are included in Chart 1 below.

The test system of experiment [6] is Bacteroides fragilis sp. fragilis 1874. Conditions: agar dilution, 37° C., Bacteroides fragilis sp. fragilis 1874; for MIC: Bacteroides fragilis, 24 h, read-out: 24 Hr. MIC.
Experiment [7] deals with Bacteroides fragilis sp. fragilis 112. Conditions: agar dilution, 37° C., Bacteroides fragilis sp. fragilis 112; for MIC: Bacteroides fragilis, 24 h, read-out: 24 Hr. MIC.
In experiment [8] the test system is Bacteroides fragilis sp. thetaiotaomicron 1438. Conditions: agar dilution, 37° C., Bacteroides fragilis sp. thetaiotaomicron 1438; for MIC: Bacteroides fragilis, 24 h, read-out: 24 Hr. MIC.
Experiment [9] concerns Bacteroides fragilis sp. fragilis 106. Conditions: agar dilution, 37° C., Bacteroides fragilis sp. fragilis 106; for MIC: Bacteroides fragilis, 24 h, read-out: 24 Hr. MIC.
Experiment [10] has as its system Bacteroides fragilis sp. fragilis 1877. Conditions: agar dilution, 37° C., Bacteroides fragilis sp. fragilis 1877; for MIC: Bacteroides fragilis, 24 h, read-out: 24 Hr. MIC.
For experiment [11], the system named is Bacteroides fragilis sp. fragilis 9. As to conditions: agar dilution, 37° C., Bacteroides fragilis sp. fragilis 9; for MIC: Bacteroides fragilis, 24 h, read-out: 24 Hr. MIC.

Structures are written as SMILES. Values after ≈ are worked out from the molar mass of the structure shown. Structures can show the parent of a compound that is named as a salt.

In the case of `CCOC(=O)C(=O)Nc1c(C#N)c(-c2ncc([N+](=O)[O-])n2C)nn1C` [Example 1, N-[4-Cyano-1-methyl-3-(1-methyl-5-nitroimidazol-2-yl)pyrazol-5-yl]oxamic acid, ethyl ester], the “24 Hr. MIC” value was 16 µg/mL in experiment [1], 16 µg/mL in experiment [3], over 128 µg/mL in experiment [5] and 0.06 µg/mL in experiment [6]. For the same molecule, the MIC (as a rule, the smallest concentration in the dilution series that meets the test's criterion for growth inhibition) in experiment [2] was at most 0.25 µg/mL; in experiment [4] it was at most 0.25 µg/mL; in [7] it was 0.125 µg/mL (≈ 0.36 µM); in experiment [8], 0.25 µg/mL (≈ 0.72 µM); in experiment [9], 0.125 µg/mL (≈ 0.36 µM); in experiment [10] it was 0.25 µg/mL (≈ 0.72 µM). In addition, the MIC in experiment [11] came out at 0.25 µg/mL (≈ 0.72 µM).
On to `CCC[C@@H]1C[C@@H](C(=O)N[C@@H]([C@H]2O[C@H](SC)[C@H](O)[C@@H](O)[C@H]2O)[C@H](C)Cl)N(C)C1` [C, clindamycin, reference compound], for which the MIC in experiment [1] was 1 µg/mL (≈ 2.35 µM); in [2], at most 0.5 µg/mL; in [3], at most 0.5 µg/mL; in experiment [4], at most 0.5 µg/mL; in experiment [5], 8 µg/mL (≈ 18.8 µM); in experiment [6] it was at most 0.06 µg/mL. Further, the MIC in [7] was determined as 0.25 µg/mL (≈ 0.588 µM); in experiment [8], 0.5 µg/mL (≈ 1.18 µM); in experiment [9], 0.125 µg/mL (≈ 0.294 µM); in [10], 0.25 µg/mL (≈ 0.588 µM); in experiment [11], 0.125 µg/mL (≈ 0.294 µM).
On to `Cn1nc(-c2ncc([N+](=O)[O-])n2C)c(C#N)c1NC(=O)C(=O)c1ccccc1` [Example 10, N-[4-cyano-1-methyl-3-(1-methyl-5-nitroimidazol-2-yl)pyrazol-5-yl]-2-phenylglyoxylamide], for which the MIC is 64 µg/mL (≈ 169 µM) in [1]; 32 µg/mL (≈ 84.4 µM) in experiment [3]; at most 0.03 µg/mL in [6]; at most 0.03 µg/mL in experiment [7]; at most 0.03 µg/mL in [9]; at most 0.03 µg/mL in experiment [10]. The minimum inhibitory concentration (MIC) in experiment [11] is at most 0.03 µg/mL. The “24 Hr. MIC” value in experiment [2] was 2 µg/mL; in [4], 1.0 µg/mL; in experiment [5], 1.0 µg/mL; in [8] it was at most 0.03 µg/mL.
On to `CCOC(=O)C(=O)Nc1c(C#N)c(-c2ncc([N+](=O)[O-])n2C)nn1C` [Example 2, N-[4-Cyano-1-methyl-3-(1-methyl-5-nitroimidazol-2-yl)pyrazol-5-yl]oxamic acid, ethyl ester, sodium salt], for which the “24 Hr. MIC” value in [1] (sodium salt) was over 64 µg/mL; in experiment [2] (sodium salt), 0.5 µg/mL; in [3] (sodium salt), 16 µg/mL; in experiment [4] (sodium salt), at most 0.25 µg/mL; in experiment [5] (sodium salt), over 64 µg/mL; in experiment [6] (sodium salt), 0.25 µg/mL. Moreover, the “24 Hr. MIC” value in experiment [7] (sodium salt) was found to be 0.25 µg/mL; in experiment [8] (sodium salt) it was 0.25 µg/mL; in [9] (sodium salt), 0.25 µg/mL; in experiment [10] (sodium salt), 0.5 µg/mL; in experiment [11] (sodium salt) it was 0.5 µg/mL.
For `Cn1nc(-c2ncc([N+](=O)[O-])n2C)c(C#N)c1NC(=O)C(=O)NN` [Example 6, 5-[4-Cyano-1-methyl-3-(1-methyl-5-nitroimidazol-2-yl)pyrazol5-yl]semioxamazide], the minimum inhibitory concentration (MIC) in experiment [1] is 32 µg/mL (≈ 96 µM); in [2], at most 0.25 µg/mL; in [3] it was 8 µg/mL (≈ 24 µM); in [5] it was over 128 µg/mL; in experiment [6], 0.25 µg/mL (≈ 0.75 µM); in [7] it was 0.5 µg/mL (≈ 1.5 µM). The MIC is 1 µg/mL (≈ 3 µM) in [8], 0.25 µg/mL (≈ 0.75 µM) in experiment [9], 0.5 µg/mL (≈ 1.5 µM) in experiment [10] and 0.25 µg/mL (≈ 0.75 µM) in [11]. Further, the “24 Hr. MIC” value in [4] was at most 0.25 µg/mL.
